Experimental data: patent US11246872B2, “Topical acyclovir formulations and uses thereof” (priority 2019, dated 2022)
Where two headings read alike, the source gives them in different places.

Format: physicochemical
Experimental: This Example studies the solubility and stability of acyclovir in various topical excipients. Table 1 and Table 2 below indicate the various excipients that solubility was tested in and stability of acyclovir in these excipients, respectively. [table]

## Nc1nc2c(ncn2COCCO)c(=O)[nH]1 [Acyclovir]
pH 4
  Saturated solubility of Acyclovir: 0.10 (0.10-0.10) % w/w
pH 6
  Saturated solubility of Acyclovir: 0.10 (0.09-0.10) % w/w
